Where two headings read alike, the source gives them in different places.
How the values were obtained:
Type in all cases: cell-based
[1] = test system: lomefloxacin resistant mutants of Mycobacterium smegmatis; test: microbe, parasite or virus in culture; conditions: Mycolicibacterium smegmatis; for zone of inhibition at 100 µg/disc: 100 μg/disc
[2] = test system: E. coli strain CA8000 (wild type); test: microbe, parasite or virus in culture; conditions: Escherichia coli
[3] = test system: E. coli strain ET8000 (gyr mutation); test: microbe, parasite or virus in culture; conditions: Escherichia coli
[4] = test system: nalidixic acid resistant mutants of Escherichia coli; test: microbe, parasite or virus in culture; conditions: for inhibition zones / zone of inhibition at 50 µg/disc: 50 μg/disc; for zone of inhibition at 100 µg/disc / zone of inhibition at 250 µg/disc / zone of inhibition at 50 µg/disc: Escherichia coli; for zone of inhibition at 100 µg/disc: 100 μg/disc; for zone of inhibition at 250 µg/disc: 250 μg/disc
E. coli cells [5] = test: microbe, parasite or virus in culture; conditions: Escherichia coli
[6] = test system: multidrug resistant bacteria
[7] = test system: lomefloxacin resistant mutants of Escherichia coli; test: microbe, parasite or virus in culture
E. coli CAO3 = test: microbe, parasite or virus in culture; conditions: Escherichia coli, CAO3, read-out: inhibition zones
[8] = test system: Escherchia coli strain CA8000; test: organism not typed; conditions: for zone of inhibition at 50 µg/disc: 50 μg/disc; for zone of inhibition at 100 µg/disc: 100 μg/disc
Text: Activity of the Compound of the Present Invention Thymol at Different pH in Escherchia coli Strain CA8000
The above table clearly indicate that the activity of the present compound is maximum at neutral pH (7.00).

[9] = test system: E. coli strain DH5α (gyr mutation); test: microbe, parasite or virus in culture; conditions: Escherichia coli
E. coli CAO3 (revert) = test: microbe, parasite or virus in culture; conditions: Escherichia coli, read-out: inhibition zones
[10] = test system: Mycobacterium smegmatis wild type strain MC^2; test: microbe, parasite or virus in culture; conditions: Mycolicibacterium smegmatis
[11] = test system: Ethidium bromide resistant strain of Mycobacterium smegmetis; test: microbe, parasite or virus in culture; conditions: read-out: Activity of thymol (zone)
E. coli cells [12] = test: Disk diffusion assay, synergistic effect of thymol with Mentha hybrid oil; conditions: Escherichia coli; thymol 50 μg/disc
[13] = read-out: inhibition zones, CAN 102
[14] = read-out: inhibition zones, CAN 104
[15] = read-out: inhibition zones, CAN 105
[16] = read-out: inhibition zones, CAN 106
[17] = read-out: inhibition zones, CAN 107
[18] = read-out: inhibition zones, CAN 108
[19] = read-out: inhibition zones, CAN 109
[20] = read-out: inhibition zones, CAN 110
[21] = read-out: inhibition zones, CAN 111
[22] = read-out: inhibition zones, CAN 112
[23] = read-out: inhibition zones, CAN 113
[24] = read-out: inhibition zones, CAN 114
[25] = read-out: inhibition zones, CAN 115
[26] = read-out: inhibition zones, CAN 116
[27] = read-out: inhibition zones, CAN 117
[28] = read-out: inhibition zones, CAN 118
[29] = read-out: inhibition zones, CAN 119
[30] = read-out: inhibition zones, CAN 120
[31] = read-out: inhibition zones, CAN 121
[32] = read-out: inhibition zones, CAN 122
[33] = read-out: inhibition zones, CAN 123
[34] = read-out: inhibition zones, CAN 124
[35] = read-out: inhibition zones, CAN 125
[36] = read-out: inhibition zones, CAN 126

## Cc1ccc(C(C)C)c(O)c1 [Thymol]
[1]; read-out: inhibition zones, MSL 101
  zone of inhibition at 100 µg/disc: 1 mm
[1]; read-out: inhibition zones, MSL 102
  zone of inhibition at 100 µg/disc: 1 mm
[1]; read-out: inhibition zones, MSL 103
  zone of inhibition at 100 µg/disc: 1 mm
[1]; read-out: inhibition zones, MSL 104
  zone of inhibition at 100 µg/disc: 1 mm
[1]; read-out: inhibition zones, MSL 105
  zone of inhibition at 100 µg/disc: 1 mm
[1]; read-out: inhibition zones, MSL 106
  zone of inhibition at 100 µg/disc: < 0.5 mm
[1]; read-out: inhibition zones, MSL 107
  zone of inhibition at 100 µg/disc: 1 mm
[1]; read-out: inhibition zones, MSL 108
  zone of inhibition at 100 µg/disc: 1 mm
[1]; read-out: inhibition zones, MSL 109
  zone of inhibition at 100 µg/disc: 1 mm
[1]; read-out: inhibition zones, MSL 109, 150 mg/ml
  zone of inhibition at 150000 µg/mL: 2.5 mm
[1]; read-out: inhibition zones, MSL 110
  zone of inhibition at 100 µg/disc: 1 mm
[1]; read-out: inhibition zones, MSL 111
  zone of inhibition at 100 µg/disc: 1 mm
[1]; read-out: inhibition zones, MSL 112
  zone of inhibition at 100 µg/disc: 1 mm
[2]
  zone of inhibition at 10000 µg/mL: 1 mm
  zone of inhibition at 20000 µg/mL: 2 mm
  zone of inhibition at 50000 µg/mL: 5 mm
[2]; read-out: inhibition zones
  zone of inhibition at 250 µg/disc: 4 mm
[3]
  zone of inhibition at 20000 µg/mL: 3 mm
  zone of inhibition at 50000 µg/mL: 6 mm
[4]; CAN 101
  inhibition zones: Tr.
[4]; CAN 102
  inhibition zones: Tr.
[4]; CAN 103
  inhibition zones: Tr.
[4]; CAN 104
  inhibition zones: Tr.
[4]; CAN 105
  inhibition zones: Tr.
[4]; CAN 108
  inhibition zones: Tr.
[4]; CAN 113
  inhibition zones: Tr.
[4]; CAN 122
  inhibition zones: Tr.
[4]; read-out: inhibition zones, CAN 101
  zone of inhibition at 100 µg/disc: 1.5 mm
[4]; [13]
  zone of inhibition at 100 µg/disc: 2 mm
  zone of inhibition at 250 µg/disc: 7 mm
[4]; read-out: inhibition zones, CAN 103
  zone of inhibition at 100 µg/disc: 2 mm
[4]; [14]
  zone of inhibition at 100 µg/disc: 2 mm
  zone of inhibition at 250 µg/disc: 6 mm
[4]; [15]
  zone of inhibition at 100 µg/disc: 2 mm
  zone of inhibition at 250 µg/disc: 5 mm
[4]; [16]
  zone of inhibition at 50 µg/disc: 1 mm
  zone of inhibition at 100 µg/disc: 2 mm
[4]; [17]
  zone of inhibition at 50 µg/disc: 1 mm
  zone of inhibition at 100 µg/disc: 3 mm
  zone of inhibition at 250 µg/disc: 5 mm
[4]; [18]
  zone of inhibition at 100 µg/disc: 2 mm
  zone of inhibition at 250 µg/disc: 5 mm
[4]; [19]
  zone of inhibition at 50 µg/disc: 1 mm
  zone of inhibition at 100 µg/disc: 3 mm
  zone of inhibition at 250 µg/disc: 6 mm
[4]; [20]
  zone of inhibition at 50 µg/disc: 1 mm
  zone of inhibition at 100 µg/disc: 3 mm
  zone of inhibition at 250 µg/disc: 6 mm
[4]; [21]
  zone of inhibition at 50 µg/disc: 1 mm
  zone of inhibition at 100 µg/disc: 3 mm
  zone of inhibition at 250 µg/disc: 5 mm
[4]; [22]
  zone of inhibition at 50 µg/disc: 1 mm
  zone of inhibition at 100 µg/disc: 3 mm
  zone of inhibition at 250 µg/disc: 5 mm
[4]; [23]
  zone of inhibition at 100 µg/disc: 2 mm
  zone of inhibition at 250 µg/disc: 5 mm
[4]; [24]
  zone of inhibition at 50 µg/disc: 1 mm
  zone of inhibition at 100 µg/disc: 3 mm
  zone of inhibition at 250 µg/disc: 6 mm
[4]; [25]
  zone of inhibition at 50 µg/disc: 1 mm
  zone of inhibition at 100 µg/disc: 3 mm
  zone of inhibition at 250 µg/disc: 5 mm
[4]; [26]
  zone of inhibition at 50 µg/disc: 1 mm
  zone of inhibition at 100 µg/disc: 3 mm
  zone of inhibition at 250 µg/disc: 5 mm
[4]; [27]
  zone of inhibition at 50 µg/disc: 1 mm
  zone of inhibition at 100 µg/disc: 3 mm
  zone of inhibition at 250 µg/disc: 5 mm
[4]; [28]
  zone of inhibition at 50 µg/disc: 1 mm
  zone of inhibition at 100 µg/disc: 3 mm
  zone of inhibition at 250 µg/disc: 5 mm
[4]; [29]
  zone of inhibition at 50 µg/disc: 1 mm
  zone of inhibition at 100 µg/disc: 3 mm
  zone of inhibition at 250 µg/disc: 6 mm
[4]; [30]
  zone of inhibition at 50 µg/disc: 1 mm
  zone of inhibition at 100 µg/disc: 3 mm
  zone of inhibition at 250 µg/disc: 6 mm
[4]; [31]
  zone of inhibition at 50 µg/disc: 1 mm
  zone of inhibition at 100 µg/disc: 3 mm
  zone of inhibition at 250 µg/disc: 5 mm
[4]; [32]
  zone of inhibition at 100 µg/disc: 2 mm
  zone of inhibition at 250 µg/disc: 5 mm
[4]; [33]
  zone of inhibition at 50 µg/disc: 1 mm
  zone of inhibition at 100 µg/disc: 3 mm
  zone of inhibition at 250 µg/disc: 5 mm
[4]; [34]
  zone of inhibition at 50 µg/disc: 1 mm
  zone of inhibition at 100 µg/disc: 3 mm
  zone of inhibition at 250 µg/disc: 5 mm
[4]; [35]
  zone of inhibition at 50 µg/disc: 1 mm
  zone of inhibition at 100 µg/disc: 3 mm
  zone of inhibition at 250 µg/disc: 5 mm
[4]; [36]
  zone of inhibition at 50 µg/disc: 1 mm
  zone of inhibition at 100 µg/disc: 2 mm
  zone of inhibition at 250 µg/disc: 5 mm
E. coli cells [5]; thymol 12.5 μg/disc
  zone of inhibition at 12.5 µg/disc: < 0.5 mm
E. coli cells [5]; thymol 25.0 μg/disc
  zone of inhibition at 25 µg/disc: 2 mm
E. coli cells [5]; thymol 50.0 μg/disc
  zone of inhibition at 50 µg/disc: 3 mm
E. coli cells [5]; thymol 75.0 μg/disc
  zone of inhibition at 75 µg/disc: 5 mm
E. coli cells [5]; thymol 100.0 μg/disc
  zone of inhibition at 100 µg/disc: 6 mm
[6]
  increase of the antibacterial activity of thymol: 45%
[7]; read-out: inhibition zones, CAL 101, 50 μg/disc
  zone of inhibition at 50 µg/disc: 2 mm
[7]; read-out: inhibition zones, CAL 101, 100 μg/disc
  zone of inhibition at 100 µg/disc: 4 mm
[7]; read-out: inhibition zones, CAL 102, 100 μg/disc
  zone of inhibition at 100 µg/disc: 5 mm
[7]; read-out: inhibition zones, CAL 103, 50 μg/disc
  zone of inhibition at 50 µg/disc: 2 mm
[7]; read-out: inhibition zones, CAL 103, 100 μg/disc
  zone of inhibition at 100 µg/disc: 3 mm
[7]; read-out: inhibition zones, CAL 104, 50 μg/disc
  zone of inhibition at 50 µg/disc: 1 mm
[7]; read-out: inhibition zones, CAL 104, 100 μg/disc
  zone of inhibition at 100 µg/disc: 1.5 mm
[7]; read-out: inhibition zones, CAL 105, 50 μg/disc
  zone of inhibition at 50 µg/disc: 2 mm
[7]; read-out: inhibition zones, CAL 105, 100 μg/disc
  zone of inhibition at 100 µg/disc: 4 mm
[7]; read-out: inhibition zones, CAL 106, 50 μg/disc
  zone of inhibition at 50 µg/disc: 2 mm
[7]; read-out: inhibition zones, CAL 106, 100 μg/disc
  zone of inhibition at 100 µg/disc: 4 mm
[7]; read-out: inhibition zones, CAL 107, 50 μg/disc
  zone of inhibition at 50 µg/disc: 2 mm
[7]; read-out: inhibition zones, CAL 107, 100 μg/disc
  zone of inhibition at 100 µg/disc: 4 mm
[7]; read-out: inhibition zones, CAL 108, 100 μg/disc
  zone of inhibition at 100 µg/disc: 5 mm
E. coli CAO3
  zone of inhibition at 100 µg/disc: 2 mm
[8]; 25 μg/disc, pH 4.00
  inhibition zone: trace
[8]; 25 μg/disc, pH 7.00
  zone of inhibition at 25 µg/disc: 1 mm
[8]; 1M NaOH
  zone of inhibition at 50 µg/disc: 1 mm
  zone of inhibition at 100 µg/disc: 2 mm
[8]; pH 4.00
  zone of inhibition at 50 µg/disc: 2 mm
  zone of inhibition at 100 µg/disc: 4 mm
[8]; pH 7.00
  zone of inhibition at 50 µg/disc: 2 mm
  zone of inhibition at 100 µg/disc: 6 mm
[8]; pH 9.00
  zone of inhibition at 50 µg/disc: 1 mm
  zone of inhibition at 100 µg/disc: 3 mm
[9]
  zone of inhibition at 50000 µg/mL: 5.5 mm
E. coli CAO3 (revert)
  zone of inhibition at 100 µg/disc: 8 mm
[10]; read-out: Activity of thymol (zone)
  zone of inhibition at 100 µg/disc: 8 mm
[10]; read-out: inhibition zones
  zone of inhibition at 50 µg/disc: 1 mm
  zone of inhibition at 100 µg/disc: 2 mm
  zone of inhibition at 250 µg/disc: 4 mm
  zone of inhibition at 150000 µg/mL: 3 mm
[11]
  zone of inhibition at 100 µg/disc: 11 mm
E. coli cells [12]
  zone of inhibition at 50 µg/disc: 3 mm

Reference: patent publication US20020090380A1, “Novel formulation comprising thymol useful in the treatment of drug resistant bacterial infections” (priority 2000, published 2002)
